Assays:
Rhoma betae [1] = assay: Inhibition of phytopathogenic fungi, field test on affected potato plants; type: in vivo; settings: 5 m^2 plots of affected potato plants sprayed
Text: (§1) For field tests the plots of 5 m^2 in size with potato plants affected by Fusarium moniliforme, Venturia inaequalis, Rhyzoctonia violaceae, Botrytis cinereae, Verticillium albo-atrum, Diplodia zeae, Fusarium oxysporum, Rhoma betae, Rhyzoctonia aderholdii, Aspergillus niger, Alternaria sobani, Botrytis allii, Aspergillus fumigatis, Fusarium culmorum, Penicillium cyclopium were sprayed with the fungicide of the invention. To compare, the similar plots of the affected potato plants were aprayed with the known compositions indicated above.

Penicillium cyclopium [2] = assay: as above; type: in vivo; settings: 5 m^2 plots of affected potato plants sprayed
Text: as §1

Aspergillus niger [3] = assay: as above; type: in vivo; settings: 5 m^2 plots of affected potato plants sprayed
Text: as §1

Rhyzoctonia aderholdii [4] = assay: as above; type: in vivo; settings: 5 m^2 plots of affected potato plants sprayed
Text: as §1

Venturia inaequalis [5] = assay: as above; type: in vivo; settings: 5 m^2 plots of affected potato plants sprayed
Text: as §1

Diplodia zeae [6] = assay: as above; type: in vivo; settings: 5 m^2 plots of affected potato plants sprayed
Text: as §1

Alternaria sobani [7] = assay: as above; type: in vivo; settings: 5 m^2 plots of affected potato plants sprayed
Text: as §1

Botrytis allii [8] = assay: as above; type: in vivo; settings: 5 m^2 plots of affected potato plants sprayed
Text: as §1

Rhyzoctonia violaceae [9] = assay: as above; type: in vivo; settings: 5 m^2 plots of affected potato plants sprayed
Text: as §1

Botrytis cinereae [10] = assay: as above; type: in vivo; settings: 5 m^2 plots of affected potato plants sprayed
Text: as §1

Verticillium albo-atrum [11] = assay: as above; type: in vivo; settings: 5 m^2 plots of affected potato plants sprayed
Text: as §1

Fusarium moniliforme [12] = assay: as above; type: in vivo; settings: 5 m^2 plots of affected potato plants sprayed
Text: as §1

Fusarium oxysporum [13] = assay: as above; type: in vivo; settings: 5 m^2 plots of affected potato plants sprayed
Text: as §1

Fusarium culmorum [14] = assay: as above; type: in vivo; settings: 5 m^2 plots of affected potato plants sprayed
Text: as §1

Aspergillus fumigatis [15] = assay: as above; type: in vivo; settings: 5 m^2 plots of affected potato plants sprayed
Text: as §1

Rhoma betae [16] = assay: Inhibition of phytopathogenic fungi growth, laboratory test on potato-dextrose agar; type: cell-based; settings: active principle 0.01 % by mass in potato-dextrose agar
Method: (§2) A fungicidal composition based on this compound was prepared in the form of a 0.01% solution thereof in distilled water. A fungicidal action of the composition, according to the invention, was tested for inhibition of vegetative fungi growth such as Fusarium moniliforme, Ventura inaequalis, Rhyzoctonia ciolaceae, Botrytis cinereae, Verticillium albo-atrum, Diplodia zeae, Fusarium oxysporum, Rhoma betae, Rhyzoctonia aderholdii, Aspergillus niger, Alternaria sobani, Botrytis allii, Aspergillus fumigatis, Fusarium culmorum, Penicillium cyclopium affecting potato, sugar beet, cotton seeds either in laboratory or field conditions. For testing it to the Petri dishes containing potato-dextrose agar the composition of the invention was.added at the concentration of an active principle of 0.01 % by mass. The Petri dishes containing the same agar culture were inoculated with a mycelium of phytopathogenic fungi. For control dishes the phytopathogenic fungi were inoculated on agar without using the composition of the invention. A fungicidal effect of the composition, according to the invention was tested in comparison with the known fungicidal compositions based on 2,3-dichloro-1,4-naphthoquinone, zinc N,N'-ethylene-bis-dithiocarbamate and tetramethylthiuram disulphide.

Penicillium cyclopium [17] = assay: as above; type: cell-based; settings: active principle 0.01 % by mass in potato-dextrose agar
Method: as §2

Aspergillus niger [18] = assay: as above; type: cell-based; settings: active principle 0.01 % by mass in potato-dextrose agar
Method: as §2

Rhyzoctonia aderholdii [19] = assay: as above; type: cell-based; settings: active principle 0.01 % by mass in potato-dextrose agar
Method: as §2

Venturia inaequalis [20] = assay: as above; type: cell-based; settings: active principle 0.01 % by mass in potato-dextrose agar
Method: as §2

Diplodia zeae [21] = assay: as above; type: cell-based; settings: active principle 0.01 % by mass in potato-dextrose agar
Method: as §2

Alternaria sobani [22] = assay: as above; type: cell-based; settings: active principle 0.01 % by mass in potato-dextrose agar
Method: as §2

Botrytis allii [23] = assay: as above; type: cell-based; settings: active principle 0.01 % by mass in potato-dextrose agar
Method: as §2

Rhyzoctonia violaceae [24] = assay: as above; type: cell-based; settings: active principle 0.01 % by mass in potato-dextrose agar
Method: as §2

Botrytis cinereae [25] = assay: as above; type: cell-based; settings: active principle 0.01 % by mass in potato-dextrose agar
Method: as §2

Verticillium albo-atrum [26] = assay: as above; type: cell-based; settings: active principle 0.01 % by mass in potato-dextrose agar
Method: as §2

Fusarium moniliforme [27] = assay: as above; type: cell-based; settings: active principle 0.01 % by mass in potato-dextrose agar
Method: as §2

Fusarium oxysporum [28] = assay: as above; type: cell-based; settings: active principle 0.01 % by mass in potato-dextrose agar
Method: as §2

Fusarium culmorum [29] = assay: as above; type: cell-based; settings: active principle 0.01 % by mass in potato-dextrose agar
Method: as §2

Aspergillus fumigatis [30] = assay: as above; type: cell-based; settings: active principle 0.01 % by mass in potato-dextrose agar
Method: as §2

Solubility (qualitative) = settings: water, alcohols, acetone

Structure (SMILES)	Inhibition of growth of phytopathogenic fungi colonies, % Rhoma betae test field (Rhoma betae [1])	Inhibition of growth of phytopathogenic fungi colonies, % Penicillium cyclopium Tests field (Penicillium cyclopium [2])	Inhibition of growth of phytopathogenic fungi colonies, % Aspergillus niger test field (Aspergillus niger [3])	Inhibition of growth of phytopathogenic fungi colonies, % Rhyzoctonia aderholdii test field (Rhyzoctonia aderholdii [4])	Inhibition of growth of phytopathogenic fungi colonies, % Venturia inaequalis test field (Venturia inaequalis [5])	Inhibition of growth of phytopathogenic fungi colonies, % Diplodia zeae test field (Diplodia zeae [6])	Inhibition of growth of phytopathogenic fungi colonies, % Alternaria sobani test field (Alternaria sobani [7])	Inhibition of growth of phytopathogenic fungi colonies, % Botrytis allii test field (Botrytis allii [8])	Inhibition of growth of phytopathogenic fungi colonies, % Rhyzoctonia violaceae test field (Rhyzoctonia violaceae [9])	Inhibition of growth of phytopathogenic fungi colonies, % Botrytis cinereae test field (Botrytis cinereae [10])	Inhibition of growth of phytopathogenic fungi colonies, % Verticillium albo--atrum test field (Verticillium albo-atrum [11])	Inhibition of growth of phytopathogenic fungi colonies, % Fusatium monili-forme test field (Fusarium moniliforme [12])	Inhibition of growth of phytopathogenic fungi colonies, % Fusarium oxysporum test field (Fusarium oxysporum [13])	Inhibition of growth of phytopathogenic fungi colonies, % Fusarium culmorum Tests field (Fusarium culmorum [14])	Inhibition of growth of phytopathogenic fungi colonies, % Aspergillus fumigatis Tests field (Aspergillus fumigatis [15])	Inhibition of growth of phytopathogenic fungi colonies, % Rhoma betae test laboratory (Rhoma betae [16])	Inhibition of growth of phytopathogenic fungi colonies, % Penicillium cyclopium Tests laboratory (Penicillium cyclopium [17])	Inhibition of growth of phytopathogenic fungi colonies, % Aspergillus niger test laboratory (Aspergillus niger [18])	Inhibition of growth of phytopathogenic fungi colonies, % Rhyzoctonia aderholdii test laboratory (Rhyzoctonia aderholdii [19])	Inhibition of growth of phytopathogenic fungi colonies, % Venturia inaequalis test laboratory (Venturia inaequalis [20])	further results
COP(=O)(NC(=O)C(Cl)(Cl)CCl)Nc1ccccc1 (stereo not drawn) [Example 11, methyl α, α , β-trichloropropyonylamidophosphate monoanilide]	65%	90%	96%	100%	52%	98%	66%	78%	60%	39%	54%	38%	60%	98%	93%	67%	95%	100%	100%	54%	Inhibition of growth of phytopathogenic fungi colonies, % Diplodia zeae test laboratory (Diplodia zeae [21]): 100%; Inhibition of growth of phytopathogenic fungi colonies, % Alternaria sobani test laboratory (Alternaria sobani [22]): 69%; Inhibition of growth of phytopathogenic fungi colonies, % Botrytis allii test laboratory (Botrytis allii [23]): 78%; Inhibition of growth of phytopathogenic fungi colonies, % Rhyzoctonia violaceae test laboratory (Rhyzoctonia violaceae [24]): 62%; Inhibition of growth of phytopathogenic fungi colonies, % Botrytis cinereae test laboratory (Botrytis cinereae [25]): 43%; Inhibition of growth of phytopathogenic fungi colonies, % Verticillium albo--atrum test laboratory (Verticillium albo-atrum [26]): 56%; Inhibition of growth of phytopathogenic fungi colonies, % Fusatium monili-forme test laboratory (Fusarium moniliforme [27]): 39%; Inhibition of growth of phytopathogenic fungi colonies, % Fusarium oxysporum test laboratory (Fusarium oxysporum [28]): 62%; Inhibition of growth of phytopathogenic fungi colonies, % Fusarium culmorum Tests laboratory (Fusarium culmorum [29]): 100%; Inhibition of growth of phytopathogenic fungi colonies, % Aspergillus fumigatis Tests laboratory (Aspergillus fumigatis [30]): 93%; solubility (Solubility (qualitative)): soluble in water, alcohols, acetone
O=C(NP(=O)(NC(CO)C(O)c1ccc([N+](=O)[O-])cc1)NC(CO)C(O)c1ccc([N+](=O)[O-])cc1)c1ccc(Cl)cc1 (stereo not drawn) [Example 12, para-chlorobenzoylamidophosphoric acid di-1-para-nitrophenyl-1,3-propandiol-2-amide]	63%	84%	59%	100%	65%	98%	46%	99%	22%	33%	100%	56%	59%	61%	80%	64%	87%	66%	100%	70%	Inhibition of growth of phytopathogenic fungi colonies, % Diplodia zeae test laboratory (Diplodia zeae [21]): 100%; Inhibition of growth of phytopathogenic fungi colonies, % Alternaria sobani test laboratory (Alternaria sobani [22]): 48%; Inhibition of growth of phytopathogenic fungi colonies, % Botrytis allii test laboratory (Botrytis allii [23]): 100%; Inhibition of growth of phytopathogenic fungi colonies, % Rhyzoctonia violaceae test laboratory (Rhyzoctonia violaceae [24]): 24%; Inhibition of growth of phytopathogenic fungi colonies, % Botrytis cinereae test laboratory (Botrytis cinereae [25]): 34%; Inhibition of growth of phytopathogenic fungi colonies, % Verticillium albo--atrum test laboratory (Verticillium albo-atrum [26]): 100%; Inhibition of growth of phytopathogenic fungi colonies, % Fusatium monili-forme test laboratory (Fusarium moniliforme [27]): 59%; Inhibition of growth of phytopathogenic fungi colonies, % Fusarium oxysporum test laboratory (Fusarium oxysporum [28]): 60%; Inhibition of growth of phytopathogenic fungi colonies, % Fusarium culmorum Tests laboratory (Fusarium culmorum [29]): 66%; Inhibition of growth of phytopathogenic fungi colonies, % Aspergillus fumigatis Tests laboratory (Aspergillus fumigatis [30]): 87%; solubility (Solubility (qualitative)): soluble in water, alcohols, acetone
O=C(NP(=O)(Nc1ccc(Cl)cc1[N+](=O)[O-])Nc1ccc(Cl)cc1[N+](=O)[O-])c1ccc(Cl)cc1 [Example 14, para-chlorobenzoylamidophosphoric acid di-para-chloro--ortho-nitroanilide]	67%	71%	5%	100%	49%	100%	93%	98%	34%	0%	39%	55%	48%	100%	93%	68%	79%	6%	100%	50%	Inhibition of growth of phytopathogenic fungi colonies, % Diplodia zeae test laboratory (Diplodia zeae [21]): 100%; Inhibition of growth of phytopathogenic fungi colonies, % Alternaria sobani test laboratory (Alternaria sobani [22]): 100%; Inhibition of growth of phytopathogenic fungi colonies, % Botrytis allii test laboratory (Botrytis allii [23]): 100%; Inhibition of growth of phytopathogenic fungi colonies, % Rhyzoctonia violaceae test laboratory (Rhyzoctonia violaceae [24]): 35%; Inhibition of growth of phytopathogenic fungi colonies, % Botrytis cinereae test laboratory (Botrytis cinereae [25]): 0%; Inhibition of growth of phytopathogenic fungi colonies, % Verticillium albo--atrum test laboratory (Verticillium albo-atrum [26]): 40%; Inhibition of growth of phytopathogenic fungi colonies, % Fusatium monili-forme test laboratory (Fusarium moniliforme [27]): 56%; Inhibition of growth of phytopathogenic fungi colonies, % Fusarium oxysporum test laboratory (Fusarium oxysporum [28]): 50%; Inhibition of growth of phytopathogenic fungi colonies, % Fusarium culmorum Tests laboratory (Fusarium culmorum [29]): 100%; Inhibition of growth of phytopathogenic fungi colonies, % Aspergillus fumigatis Tests laboratory (Aspergillus fumigatis [30]): 100%; solubility (Solubility (qualitative)): soluble in water, alcohols, acetone
